Measurements taken from ChEMBL document CHEMBL6074677, “Development of dual V1a/V2 antagonists containing triazolobenzazepine scaffold” (Eur J Med Chem, 2025).

Legend:
Vasopressin V1a receptor [1] = target: T1, Vasopressin V1a receptor (Homo sapiens, UniProt P37288); experiment: Displacement of [3H]AVP from human vasopressin V1a receptor expressed in human 1321N1 cells assessed as inhibition constant; assay type: cell-based
[2] = Metabolic stability in rat liver microsomes assessed as intrinsic clearance at 1 uM in presence of NADPH; assay type: ADME, Microsome; details: read-out: CLH
[3] = Metabolic stability in human liver microsomes assessed as intrinsic clearance at 1 uM in presence of NADPH; assay type: ADME, Microsome; details: read-out: CLH
[4] = Metabolic stability in mouse liver microsomes assessed as intrinsic clearance at 1 uM in presence of NADPH; assay type: ADME, Microsome; details: read-out: CLH
Vasopressin V2 receptor = Vasopressin V2 receptor (Homo sapiens, UniProt P30518); experiment: Displacement of [3H]AVP from human vasopressin V2 receptor expressed in human 1321N1 cells assessed as inhibition constant; assay type: cell-based
Sequence of Vasopressin V2 receptor (P30518 whole entry): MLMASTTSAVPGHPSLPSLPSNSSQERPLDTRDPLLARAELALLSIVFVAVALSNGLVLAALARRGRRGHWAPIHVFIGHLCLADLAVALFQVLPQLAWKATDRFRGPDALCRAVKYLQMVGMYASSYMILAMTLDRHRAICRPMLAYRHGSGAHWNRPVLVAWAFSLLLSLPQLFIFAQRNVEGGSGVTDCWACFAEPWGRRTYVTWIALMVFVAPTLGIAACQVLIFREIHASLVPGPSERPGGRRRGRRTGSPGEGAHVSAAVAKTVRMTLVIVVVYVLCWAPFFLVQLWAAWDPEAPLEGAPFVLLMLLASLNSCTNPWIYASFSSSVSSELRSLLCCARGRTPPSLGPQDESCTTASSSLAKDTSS

[5] = target: Voltage-gated inwardly rectifying potassium channel KCNH2 (Homo sapiens, UniProt Q12809); experiment: Inhibition of human ERG expressed in CHO cells at -80 mV holding potential measured for 7 to 10 mins by automated patch clamp method; assay type: toxicity, cell-based
Sequence of Voltage-gated inwardly rectifying potassium channel KCNH2 (Q12809 whole entry): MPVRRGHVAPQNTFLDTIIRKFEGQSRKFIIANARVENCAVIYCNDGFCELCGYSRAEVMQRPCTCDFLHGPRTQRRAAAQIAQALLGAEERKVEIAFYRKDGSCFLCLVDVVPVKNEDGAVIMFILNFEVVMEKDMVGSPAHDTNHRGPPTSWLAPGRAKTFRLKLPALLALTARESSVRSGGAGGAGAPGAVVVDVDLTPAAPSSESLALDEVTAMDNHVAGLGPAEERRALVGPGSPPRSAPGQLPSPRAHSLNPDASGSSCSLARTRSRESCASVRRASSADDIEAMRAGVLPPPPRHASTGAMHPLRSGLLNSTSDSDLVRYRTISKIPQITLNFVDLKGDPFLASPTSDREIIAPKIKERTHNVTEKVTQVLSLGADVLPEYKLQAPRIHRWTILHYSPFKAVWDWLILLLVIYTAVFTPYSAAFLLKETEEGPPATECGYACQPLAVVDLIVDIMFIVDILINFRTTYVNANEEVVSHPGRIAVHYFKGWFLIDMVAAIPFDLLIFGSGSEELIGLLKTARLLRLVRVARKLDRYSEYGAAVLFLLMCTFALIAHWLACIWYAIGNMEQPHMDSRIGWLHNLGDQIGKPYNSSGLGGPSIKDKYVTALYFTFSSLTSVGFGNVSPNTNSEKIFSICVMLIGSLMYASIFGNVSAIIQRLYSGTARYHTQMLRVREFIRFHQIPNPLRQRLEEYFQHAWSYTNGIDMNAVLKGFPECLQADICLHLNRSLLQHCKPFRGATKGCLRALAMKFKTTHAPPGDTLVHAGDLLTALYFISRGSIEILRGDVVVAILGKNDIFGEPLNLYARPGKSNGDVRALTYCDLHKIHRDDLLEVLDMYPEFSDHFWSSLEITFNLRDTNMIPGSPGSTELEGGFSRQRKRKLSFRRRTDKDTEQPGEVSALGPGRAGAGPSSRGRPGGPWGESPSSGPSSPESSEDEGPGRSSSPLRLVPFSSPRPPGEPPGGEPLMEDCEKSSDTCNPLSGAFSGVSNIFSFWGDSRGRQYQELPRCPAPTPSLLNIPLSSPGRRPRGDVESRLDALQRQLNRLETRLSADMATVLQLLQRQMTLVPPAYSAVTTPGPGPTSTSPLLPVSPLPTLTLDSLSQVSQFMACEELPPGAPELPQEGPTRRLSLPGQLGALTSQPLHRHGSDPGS

[6] = Apparent permeability across apical to basolateral side in vinblastine treated human Caco-2 cells incubated for 15 to 60 mins by HPLC analysis; assay type: ADME, cell-based; details: time 15-60 min
[7] = target: Vasopressin V1a receptor (Mus musculus) (UniProt Q62463); experiment: In vivo antagonist activity at vasopressin V1a receptor in male NMRI mouse assessed as inhibition of oxytocin-induced scratching behavior at 1 mg/kg, po pretreated with compound for 60 mins followed by oxytocin administration and measured after 1 hrs relative to control; assay type: functional, organism-based; details: time 120.0 min
Sequence of Vasopressin V1a receptor (Mus musculus) (Q62463 whole entry, looked up): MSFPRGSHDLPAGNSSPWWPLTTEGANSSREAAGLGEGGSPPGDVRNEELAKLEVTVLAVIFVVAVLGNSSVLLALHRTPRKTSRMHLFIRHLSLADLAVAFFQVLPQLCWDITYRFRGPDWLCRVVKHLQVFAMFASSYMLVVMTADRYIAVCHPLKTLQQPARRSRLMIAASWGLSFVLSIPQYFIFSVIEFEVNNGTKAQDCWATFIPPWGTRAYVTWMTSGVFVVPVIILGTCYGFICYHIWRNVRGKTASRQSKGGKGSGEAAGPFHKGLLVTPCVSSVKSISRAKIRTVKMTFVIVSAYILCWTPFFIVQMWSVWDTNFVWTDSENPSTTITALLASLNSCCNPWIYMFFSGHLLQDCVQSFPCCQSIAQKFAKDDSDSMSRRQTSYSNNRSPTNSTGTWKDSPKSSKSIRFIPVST

[8] = target: Vasopressin V1a receptor (Mus musculus) (UniProt Q62463); experiment: In vivo antagonist activity at vasopressin V1a receptor in male NMRI mouse assessed as inhibition of oxytocin-induced scratching behavior at 3 mg/kg, po pretreated with compound for 60 mins followed by oxytocin administration and measured after 1 hrs relative to control; assay type: functional, organism-based; details: time 120.0 min
[9] = target: Vasopressin V1a receptor (Mus musculus) (UniProt Q62463); experiment: In vivo antagonist activity at vasopressin V1a receptor in male NMRI mouse assessed as inhibition of oxytocin-induced scratching behavior at 0.3 mg/kg, po pretreated with compound for 60 mins followed by oxytocin administration and measured after 1 hrs relative to control; assay type: functional, organism-based; details: time 120.0 min
Vasopressin V1a receptor [10] = target: T1, Vasopressin V1a receptor; experiment: Displacement of [3H]AVP from human vasopressin V1a receptor expressed in human 1321N1 cells; assay type: cell-based
Vasopressin V1a receptor [11] = target: Vasopressin V1a receptor (Mus musculus, UniProt Q62463); experiment: Displacement of [3H]AVP from mouse vasopressin V1a receptor expressed in human 1321N1 cells assessed as inhibition constant; assay type: cell-based
Sequence of Vasopressin V1a receptor (Mus musculus, UniProt Q62463) (Q62463 whole entry): as the sequence (Q62463 whole entry, looked up) above

T1 sequence (P37288 whole entry): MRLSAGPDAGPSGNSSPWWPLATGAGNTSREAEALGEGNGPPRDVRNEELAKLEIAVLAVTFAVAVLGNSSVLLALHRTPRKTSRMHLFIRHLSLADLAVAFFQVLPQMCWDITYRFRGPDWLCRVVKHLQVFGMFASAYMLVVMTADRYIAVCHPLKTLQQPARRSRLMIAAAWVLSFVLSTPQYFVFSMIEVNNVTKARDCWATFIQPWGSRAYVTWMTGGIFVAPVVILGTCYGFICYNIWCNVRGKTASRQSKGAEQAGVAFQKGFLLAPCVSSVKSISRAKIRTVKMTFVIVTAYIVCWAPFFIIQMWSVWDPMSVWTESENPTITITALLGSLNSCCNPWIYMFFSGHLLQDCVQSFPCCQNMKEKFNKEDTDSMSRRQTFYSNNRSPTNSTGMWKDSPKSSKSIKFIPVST

Row | Compound | Ki (Vasopressin V1a receptor [1]) [nM] | microsomal CLint at 1 µM [2] [µL/min/mg] | microsomal CLint at 1 µM [3] [µL/min/mg] | microsomal CLint at 1 µM [4] [µL/min/mg] | Ki (Vasopressin V2 receptor) [nM] | IC50 [5] [nM] | Papp A→B [6] [×10⁻⁶ cm/s] | inhibition [7] [%] | inhibition [8] [%] | inhibition [9] [%] | IC50 (Vasopressin V1a receptor [10]) [nM] | Ki (Vasopressin V1a receptor [11]) [nM]
1 | NC(=O)C1Cc2cc(Cl)ccc2-n2c(nnc2N2CCC(N3CCCCC3)CC2)C1 (configuration not stated) | 98 | 0.2 | 0.2 | 0.2 |  |  |  |  |  |  |  | 
2 | CC1(C)Cc2cccc(N3CCN(c4nnc5n4-c4ccc(Cl)cc4CC4(C5)OCCO4)CC3)c2O1 | 0.82 | 113 | 107 | 99.5 | 24 |  |  |  |  |  |  | 
3 | Cc1cccc(N2CCN(c3nnc4n3-c3ccc(Cl)cc3CC(C(N)=O)C4)CC2)c1C (configuration not stated) | 0.65 | 14.5 | 5.1 | 9.1 | 13 |  |  |  |  |  |  | 
4 | Clc1ccc2c(c1)CC1(Cc3nnc(N4CCN(c5cccc6c5COC6)CC4)n3-2)OCCO1 | 0.5 | 29.4 | 17 | 30.5 | 2.8 | 7900 |  |  |  |  |  | 
5 | Cc1nc2c([nH]1)-c1ccccc1N(C(=O)c1ccc(NC(=O)c3ccccc3-c3ccccc3)cc1)CC2 [CONIVAPTAN] |  |  |  |  |  | > 5000 | 2.9 |  |  |  |  | 
6 | Clc1ccc2c(c1)CC1(Cc3nnc(N4CCN(c5cccc6c5OCO6)CC4)n3-2)OCCO1 | 0.25 | 31.7 | 8.8 | 25.1 | 0.8 | 11000 | 31 |  |  |  |  | 
7 | Clc1ccc2c(c1)CC1(CCOCC1)Cc1nnc(N3CCN(c4cccc5c4OCC5)CC3)n1-2 | 0.41 | 48.2 | 78.3 | 70.7 | 1.1 |  |  |  |  |  |  | 
8 | Clc1ccc2c(c1)CC1(Cc3nnc(N4CCN(c5cccc6c5CCO6)CC4)n3-2)OCCO1 | 0.38 | 28.2 | 11.5 | 21.8 | 2.2 | 10000 | 30 |  |  |  |  | 
9 | Clc1ccc2c(c1)CC1(Cc3nnc(C4CCN(c5cccc6c5CCO6)CC4)n3-2)OCCO1 | 0.3 |  |  |  | 26 |  |  |  |  |  |  | 
10 | COc1ccccc1N1CCN(c2nnc3n2-c2ccc(Cl)cc2CC2(C3)OCCO2)CC1 | 0.4 |  |  |  | 2 |  |  |  |  |  |  | 
11 | Clc1ccc2c(c1)CC1(CCCO1)Cc1nnc(N3CCN(c4cccc5c4OCC5)CC3)n1-2 (configuration not stated) | 1.4 |  |  |  | 5.1 |  |  |  |  |  |  | 
12 | Clc1ccc2c(c1)CC1(Cc3nnc([C@H]4CC[C@H](Oc5ccccn5)CC4)n3-2)OCCO1 |  | 28 | 13 | 25 |  | 9100 | 59.3 | 86 | 80 | 42 |  | 
13 | O=C1c2ccccc2CCN1C1CCN(c2nnc3n2-c2ccc(Cl)cc2CC2(C3)OCCO2)CC1 | 0.25 |  |  |  | 13 |  |  |  |  |  |  | 
14 | Cc1cccc(N2CCN(c3nnc4n3-c3ccc(Cl)cc3CC3(C4)OCCO3)CC2)c1C | 0.5 | 28 | 5.8 | 23.3 | 0.7 | 10000 |  | 83 | 104 | 69 | 5.7 | 0.4
15 | Clc1ccc2c(c1)CC1(Cc3nnc(N4CCN(c5ccccn5)CC4)n3-2)OCCO1 |  | 25.4 | 9.1 | 21.7 | 4.7 |  | 39.9 |  |  |  |  | 
16 | COC1(c2ccccc2)CCN(c2nnc3n2-c2ccc(Cl)cc2CC(C(N)=O)C3)CC1 (configuration not stated) | 1.3 | 7.1 | 3 | 13.9 | 1610 |  |  |  |  |  |  | 
17 | NC(=O)C1Cc2cc(Cl)ccc2-n2c(nnc2N2CCN(c3cccc(Cl)c3)CC2)C1 (configuration not stated) | 7.7 | 7 | 3.7 | 9.2 | 259 |  |  |  |  |  |  | 

Row | Compound | Ki (Vasopressin V1a receptor [1]) [nM] | microsomal CLint at 1 µM [2] [µL/min/mg] | microsomal CLint at 1 µM [3] [µL/min/mg] | microsomal CLint at 1 µM [4] [µL/min/mg] | Ki (Vasopressin V2 receptor) [nM] | IC50 [5] [nM] | Papp A→B [6] [×10⁻⁶ cm/s] | inhibition [7] [%] | inhibition [8] [%] | inhibition [9] [%] | IC50 (Vasopressin V1a receptor [10]) [nM] | Ki (Vasopressin V1a receptor [11]) [nM]
18 | Clc1ccc2c(c1)CC1(Cc3nnc(N4CCC5(CC4)OCc4ccccc45)n3-2)OCCO1 |  | 166 | 12 | 194 | 1.6 |  |  |  |  |  |  | 
19 | Clc1ccc2c(c1)CC1(Cc3nnc(N4CCC(c5cccc6c5OCO6)CC4)n3-2)OCCO1 | 0.2 |  |  |  | 0.9 |  |  |  |  |  |  | 
20 | Clc1ccc2c(c1)CC1(Cc3nnc(C4CCN(c5cccc6c5OCC6)CC4)n3-2)OCCO1 | 0.2 |  |  |  | 4 |  |  |  |  |  |  | 
21 | OC1Cc2cc(Cl)ccc2-n2c(nnc2N2CCN(c3cccc4c3OCC4)CC2)C1 (configuration not stated) | 1.4 | 26.2 | 13.5 | 14.3 | 11 |  |  |  |  |  |  | 
22 | Clc1ccc2c(c1)CC1(Cc3nnc(C4CCN(c5cccc6c5COC6)CC4)n3-2)OCCO1 | 0.21 |  |  |  | 26 |  |  |  |  |  |  | 
23 | Cc1ccccc1C(=O)NC1CCN(c2nnc3n2-c2ccc(Cl)cc2CC2(C3)OCCO2)CC1 | 0.35 |  |  |  | 9 |  |  |  |  |  |  | 
24 | Clc1ccc2c(c1)CC1(Cc3nnc(N4CCC(N5CCCCC5)CC4)n3-2)OCCO1 | 2.04 | 1.15 | 0.2 | 1.15 | 998 |  | 2.4 |  |  |  |  | 
25 | Clc1ccc2c(c1)CC1(Cc3nnc(N4CCC(Oc5ccccn5)CC4)n3-2)OCCO1 |  | 33.3 | 10.9 | 28.4 | 20 | 8200 | 40.4 |  |  |  |  | 
26 | NC(=O)C1Cc2cc(Cl)ccc2-n2c(nnc2N2CCC(Oc3ccccn3)CC2)C1 (configuration not stated) | 1.4 | 7.6 | 0.5 | 6.2 | 3620 |  |  |  |  |  |  | 
27 | Clc1ccc2c(c1)CC1(Cc3nnc(N4CCN(c5ncccc5Cl)CC4)n3-2)OCCO1 | 0.26 | 51 | 10.6 | 58.5 | 1.2 |  |  |  |  |  |  | 
28 | Clc1ccc2c(c1)CC1(Cc3nnc(N4CCN(c5nccc6ccoc56)CC4)n3-2)OCCO1 | 0.28 | 110 | 18 | 44.6 | 21 |  |  |  |  |  |  | 
29 | Clc1ccc2c(c1)CC1(Cc3nnc(N4CCC(c5cccc6c5OCC6)CC4)n3-2)OCCO1 | 0.2 |  |  |  | 0.7 |  |  |  |  |  |  | 
30 | NC(=O)C1Cc2cc(Cl)ccc2-n2c(nnc2N2CCC3(CC2)OCc2ccccc23)C1 (configuration not stated) | 2.1 |  |  |  | 327 |  |  |  |  |  |  | 
31 | Clc1ccc2c(c1)CC1(Cc3nnc(N4CCN(c5nccc6ccsc56)CC4)n3-2)OCCO1 | 0.14 | 141 | 24.3 | 83.3 | 6.5 |  |  |  |  |  |  | 
32 | COC1(c2ccccc2)CCN(c2nnc3n2-c2ccc(Cl)cc2CC2(C3)OCCO2)CC1 | 0.17 | 62.2 | 6.9 | 51.7 | 11 | 11000 | 34 |  |  |  |  | 
33 | Cc1ccccc1C(=O)Nc1ccc(C(=O)N2CCCC(O)c3cc(Cl)ccc32)c(C)c1 (configuration not stated) [TOLVAPTAN] |  | 168 | 12 | 32 |  |  | 46.7 |  |  |  |  | 
